In BindingDB's records for patent US20260055102 (Redx Pharma, 2026):

Columns and labels:
[1] = molecular target: T1, Discoidin domain-containing receptor 2 (Homo sapiens, UniProt Q16832); assay: DDR1 and DDR2 Biochemical Assay
T1 sequence (Q16832 whole entry): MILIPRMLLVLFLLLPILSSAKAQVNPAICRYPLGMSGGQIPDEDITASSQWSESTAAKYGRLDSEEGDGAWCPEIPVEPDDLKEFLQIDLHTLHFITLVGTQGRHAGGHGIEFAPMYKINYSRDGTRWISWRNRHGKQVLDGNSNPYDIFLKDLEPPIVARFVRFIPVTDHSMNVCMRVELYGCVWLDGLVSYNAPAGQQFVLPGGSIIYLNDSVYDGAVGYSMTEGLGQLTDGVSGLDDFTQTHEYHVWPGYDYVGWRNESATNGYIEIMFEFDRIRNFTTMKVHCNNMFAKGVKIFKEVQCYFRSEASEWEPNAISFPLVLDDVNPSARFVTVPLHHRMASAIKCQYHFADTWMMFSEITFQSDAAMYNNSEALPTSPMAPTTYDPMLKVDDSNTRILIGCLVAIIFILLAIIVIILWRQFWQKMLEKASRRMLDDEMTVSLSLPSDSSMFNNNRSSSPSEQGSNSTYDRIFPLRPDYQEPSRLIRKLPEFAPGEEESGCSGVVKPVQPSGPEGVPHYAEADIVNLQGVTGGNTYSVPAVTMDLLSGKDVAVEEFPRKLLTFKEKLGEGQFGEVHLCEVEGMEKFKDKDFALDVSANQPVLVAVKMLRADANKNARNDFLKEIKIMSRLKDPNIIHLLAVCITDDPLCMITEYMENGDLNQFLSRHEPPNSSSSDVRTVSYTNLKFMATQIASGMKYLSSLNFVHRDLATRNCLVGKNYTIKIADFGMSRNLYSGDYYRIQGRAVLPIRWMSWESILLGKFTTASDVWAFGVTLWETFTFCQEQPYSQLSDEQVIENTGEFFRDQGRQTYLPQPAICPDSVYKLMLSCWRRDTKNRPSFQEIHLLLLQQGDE
Description: (§1) The capacity of compounds to bind to DDR1 and DDR2 was quantified using a LanthaScreen Eu Kinase Binding Assay. Recombinant human DDR1 (2.5 nM; aa440-876 containing a GST tag) and DDR2 (1.75 nM; aa427-855 containing a GST tag) were diluted in assay buffer (50 mM HEPES pH7.3, 10 mM MgCl2, 1 mM EGTA and 0.01% Tween) with various concentrations of compound in a 384-well plate and a volume of 5 uL. After a 30-minute incubation at room temperature, 2.5 uL of Eu-anti GST antibody (diluted to 1 nM in assay buffer) plus Kinase Tracer 178 (diluted in assay buffer to 5 nM for DDR1 and 10 nM for DDR2) were added to the plate. Following 60-minute incubation at room temperature, time-resolved fluorescence was measured on a BMG Labtech PHERAstar plate reader. DMSO (1%) and reference compound (1 μM) were used to generate the Max and Min assay signals, respectively. Data was analysed using a four-parameter logistic model to calculate IC50 values, with at least two independent replicates were performed for each compound.

[2] = molecular target: Epithelial discoidin domain-containing receptor 1 (Homo sapiens, UniProt Q08345); assay: DDR1 and DDR2 Biochemical Assay
Epithelial discoidin domain-containing receptor 1, sequence (Q08345 whole entry, the tested form may be a part): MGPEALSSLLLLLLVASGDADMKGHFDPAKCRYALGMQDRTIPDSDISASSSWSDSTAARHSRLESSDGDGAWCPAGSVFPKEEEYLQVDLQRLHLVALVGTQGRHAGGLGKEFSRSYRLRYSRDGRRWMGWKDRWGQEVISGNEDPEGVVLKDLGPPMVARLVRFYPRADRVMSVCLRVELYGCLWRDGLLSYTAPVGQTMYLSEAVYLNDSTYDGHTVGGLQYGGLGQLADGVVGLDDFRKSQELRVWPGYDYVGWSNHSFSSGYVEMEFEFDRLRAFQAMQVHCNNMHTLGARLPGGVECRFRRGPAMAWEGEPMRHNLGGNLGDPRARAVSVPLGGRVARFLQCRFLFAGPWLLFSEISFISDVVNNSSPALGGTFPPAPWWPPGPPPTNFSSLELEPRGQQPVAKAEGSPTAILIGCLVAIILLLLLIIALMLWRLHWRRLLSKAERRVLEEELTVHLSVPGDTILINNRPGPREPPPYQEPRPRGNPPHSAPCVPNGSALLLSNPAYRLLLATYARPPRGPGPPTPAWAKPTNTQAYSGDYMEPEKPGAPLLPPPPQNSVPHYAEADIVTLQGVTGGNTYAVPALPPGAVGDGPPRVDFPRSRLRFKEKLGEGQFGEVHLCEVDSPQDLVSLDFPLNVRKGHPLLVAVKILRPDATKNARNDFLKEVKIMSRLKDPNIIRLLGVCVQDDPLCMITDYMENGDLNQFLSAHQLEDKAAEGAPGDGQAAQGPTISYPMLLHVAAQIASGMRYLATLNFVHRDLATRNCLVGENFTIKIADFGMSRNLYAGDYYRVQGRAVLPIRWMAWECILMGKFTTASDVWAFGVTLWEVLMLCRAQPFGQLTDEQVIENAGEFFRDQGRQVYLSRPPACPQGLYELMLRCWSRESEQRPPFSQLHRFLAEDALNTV
Description: as §1

| Structure (SMILES) | IC50 [1] [nM] | IC50 [2] [nM] |
| --- | --- | --- |
| Cc1cccc2c1n(-c1ccc(-c3cncc4c3cnn4C)cc1)c(=O)n2CC(=O)N1CCC[C@H]1CF [US20260055102, Example 26] | > 1000 | – |
| Cc1cccc2c1n(-c1ccc(-c3cncc4c3cnn4C)cn1)c(=O)n2CC(=O)N1CCO[C@H](C(F)(F)F)C1 [US20260055102, Example 61] | – | < 10 |
| CN(C)c1cccc2c1n(-c1ccc(-c3cncc4c3cnn4C)cc1)c(=O)n2CC(=O)NCC(F)(F)F [US20260055102, Example 80] | > 1000 | – |
| Cc1nc(-n2c(=O)n(CC(=O)NCC(F)(F)F)c3cccc(C)c32)cnc1-c1cncc2c1cnn2C [US20260055102, Example 100] | > 1000 | > 1000 |
